What was measured:
[1] = tested on: NT4 internalization in MDA-MB-231 cells; assay: Inhibition of NT4 internalization by pharmacological agents, confocal microscopy; type: cell-based, human; settings: for reduction of NT4 internalization: ±13%
Protocol: (§1) MDA-MB-231 cells were plated at a density of 5 × 10^4 per well in 24-well plates with glass cover slides and maintained overnight at 37 °C, 5% CO2.
Cells were pretreated for 15 min with 1–10 μg/mL Chlorpromazine (Merck, Darmstadt, Germany), 25 μg/mL Nystatin (Merck), 80 μM Dynasore (Merck) and 50 µM Amiloride (Merck) at 37 °C and then incubated with 2 μM NT4-biotin and 0.5 μg/mL Streptavidin-Atto 488 in PBS-1% BSA at room temperature for 15 min. To study macropinocytosis in the presence of Amiloride, 5 mg/mL Rhodamine B isothiocyanate–Dextran in PBS-1% BSA (Merck) was incubated at room temperature for 15 min. Cells were then washed and grown in medium, with and without pharmacological agents, for 15 and 30 min at 37 °C to allow peptide internalization. After internalization, they were fixed with PBS-4% PFA and plasma membranes were stained with 2.5 μg/mL wheat germ agglutinin, Alexa Fluor 647 (Thermo Fisher Scientific) conjugate in PBS-1% BSA, incubated for 10 min at room temperature. Nuclei were stained with DAPI (0.5 μg/mL in PBS-1% BSA). Each step was followed by three washes in PBS.
Peptide binding was analyzed by confocal laser microscope (Leica TCS SP5) with 501 λ ex and 523 λ em for Atto 488, 633 λ ex and 660–680 λ em for Atto 647 and 364 λ ex and 458 λ em for DAPI. Images were single Z-planes for all channels used. All images were processed and quantified using the Leica Application Suite X program (LAS X) of the confocal laser microscope (Leica TCS SP5). The experiment was repeated at least three times and at least three different fields were acquired for each sample.

CDC42-GTP = assay: G-LISA activation assay, CDC42; type: cell-based, human; settings: starved MDA-MB-231
Protocol: Cells were seeded in six-well plates (5 × 10^5 cells per well) and maintained for 12 h in a CO2 incubator. To measure Rac-1, RhoA and CDC42 GTPases, they were treated with 10 µM NT4 in DMEM-0.1% BSA, serum-free, for 12 h at 37 °C and then incubated with 0.1 μg/mL hEGF (Cell Signaling) for 2 min for Rac-1 and CDC42 GTPases and for 5 min for RhoA GTPase. Cells were washed with cold PBS, lysed and processed for colorimetric G-LISA activation assays (Cytoskeleton, Denver, CO, USA), according to the manufacturer’s instructions. The activated forms of the G proteins were detected by incubation with specific primary antibody, followed by a secondary antibody conjugated with HRP and a detection reagent. The signal was read by measuring absorbance at 490 nm using a microplate reader. […]

Rac1-GTP = assay: G-LISA activation assay, Rac1; type: cell-based, human; settings: starved MDA-MB-231
Protocol: (§2) Cells were seeded in six-well plates (5 × 10^5 cells per well) and maintained for 12 h in a CO2 incubator. To measure Rac-1, RhoA and CDC42 GTPases, they were treated with 10 µM NT4 in DMEM-0.1% BSA, serum-free, for 12 h at 37 °C and then incubated with 0.1 μg/mL hEGF (Cell Signaling) for 2 min for Rac-1 and CDC42 GTPases and for 5 min for RhoA GTPase. Cells were washed with cold PBS, lysed and processed for colorimetric G-LISA activation assays (Cytoskeleton, Denver, CO, USA), according to the manufacturer’s instructions. The activated forms of the G proteins were detected by incubation with specific primary antibody, followed by a secondary antibody conjugated with HRP and a detection reagent. The signal was read by measuring absorbance at 490 nm using a microplate reader. The experiment was repeated three times.

RhoA-GTP = assay: G-LISA activation assay, RhoA; type: cell-based, human; settings: starved MDA-MB-231, n = 3
Protocol: as §2

MDA-MB-231 cells [2] = assay: NT4 binding to plasma membrane and internalization, confocal immunofluorescence; type: cell-based, human; settings: confocal microscopy
Protocol: as §1
Cells were incubated with 2 μM NT4-biotin and 0.5 μg/mL Streptavidin-Atto 488 in PBS-1% BSA at room temperature for 15 min, then washed and grown in medium for 5, 15 and 30 min at 37 °C to allow peptide internalization. They were then fixed with PBS-4% paraformaldehyde (PFA) and saturated with PBS-5% BSA 0.3%-Triton X-100. HS was stained using 1 µg/mL anti-heparan sulfate (10E4 epitope) (Amsbio, Abingdon, UK) in PBS-1% BSA for 1 h, followed by incubation with 1 μg/mL anti-mouse IgG Rhodamine Red-X (Thermo Fisher Scientific, Waltham, MA, USA). Nuclei were stained with DAPI (0.5 μg/mL in PBS-1% BSA). Each step was followed by three washes in PBS. Peptide binding was analyzed by confocal laser microscope (Leica TCS SP5) with 380 λ ex and 450–470 λ em, 501 λ ex and 523 λ em and 633 λ ex and 660–680 λ em for DAPI, Atto 488 and Atto 647, respectively. The experiment was repeated three times and three different fields were acquired for each sample.

MDA-MB-231 cells [3] = assay: 2D migration, in vitro wound-healing (scratch) assay; type: cell-based, human; settings: 10 μM NT4 in complete medium, p = 0.0428, n = 2
Protocol: Cell migration was measured using an in vitro wound-healing assay. MDA-MB231 cells (5.25 × 10^4) were seeded on each side of a culture insert for live cell analysis (Ibidi, Munich, Germany). Inserts were placed in the wells of a 24-well plate and the cells were incubated at 37 °C and 5% CO2 to confluence. The inserts were removed with sterile tweezers to create a cell-free area of approximately 500 μm. The cells were treated with 10 μM NT4 peptide in complete medium and allowed to migrate in an appropriate incubator of a DMi8 (Leica Microsystems, Wetzlar, Germany) microscope. The same instrument was used to take pictures at time zero and every 5 min for 11 h.
The percentage of void area with respect to time 0 was determined using Tscratch. The time-lapse image stacks were also analyzed using ImageJ and the plug-in Chemotaxis and Migration Tool.

Rac-1-GTP = assay: Rac1 pulldown assay (GST-PAK1-PBD beads, immunoblot); type: cell-based, human; settings: MDA-MB-231, no EGF
Protocol: Rac1 activity was measured by pulldown assay using the active Rac1 detection kit (Cell Signaling), according to the manufacturer’s instructions. Cells were seeded in six-well plates (5 × 10^5 cells per well) and maintained for 24 h in a CO2 incubator. Cells were washed with cold PBS and lysed. Protein lysates were centrifuged and the supernatant was collected in new tubes containing beads pre-coupled with GST–PAK1-PBD and incubated under rotation at 4 °C for 60 min. The beads were washed and the proteins bound to them were separated by SDS-PAGE. The amounts of active Rac1 were determined by immunoblot analysis. Signals were detected using a LAS4010 imaging system (GE Healthcare, Chicago, IL, USA).

heparan sulfate chains = settings: surface plasmon resonance; cited from earlier work
MDA-MB231 cells = settings: flow cytometry; cited from earlier work
Protocol: The peptide bound to the plasma membrane (Figure 1A), most was internalized in cells within 15–30 min (Figure 1B,C) and it was completely endocytosed within 1 h (Figure 1D). The antibody anti-HS clone 10E4 [20], the epitope of which includes an N-sulfated glucosamine r ...

proteolytic enzymes = settings: imparted by branched structure; cited from earlier work
Text: NT4 is a tetrabranched peptide obtained by synthesizing four copies of the 13-amino-acid sequence on a branched core of lysines. […] The peptide has already been tested in animal models of cancer and has shown good specificity for tumor versus healthy cells. It also countered the invasive ...

C[C@@H]1[C@H](O)[C@@H](C)/C=C/C=C/CC/C=C/C=C/C=C/C=C/C(O[C@H]2O[C@H](C)[C@@H](O)[C@H](N)[C@@H]2O)CC2O[C@](O)(CC(O)C(O)CCC(O)CC(O)CC(O)CC(=O)O[C@H]1C)CC(O)C2C(=O)O (some centres unmarked) [nystatin]
inhibition of NT4 endocytosis ([1]; 25 μg/mL nystatin, 15 min, 2 μM NT4-biotin, n = 9, p = 0.0345): 60%

N=C(N)NC(=O)c1nc(Cl)c(N)nc1N [Amiloride]
impairment of NT4 internalization ([1]; 50 µM amiloride pre-treatment, p = 0.0461): more than 50%

O=C(N/N=C/c1ccc(O)c(O)c1)c1cc2ccccc2cc1O [dynasore]
effect on NT4 internalization ([1]; 80 μM dynasore, n = 6, p = 0.0043): no longer internalized NT4

CN(C)CCCN1c2ccccc2Sc2ccc(Cl)cc21 [chlorpromazine]
reduction of NT4 internalization ([1]; chlorpromazine 1 μg/mL, n = 3, p = 0.0279): 27% | reduction of NT4 internalization ([1]; chlorpromazine 10 μg/mL, n = 4, p = 0.0327): 57%

EGF: growth factor (hEGF, Cell Signaling) used to stimulate Rho GTPases
effect on CDC42-GTP (CDC42-GTP; 0.1 μg/mL hEGF 2 min): increased | effect on Rac1-GTP (Rac1-GTP; 0.1 μg/mL hEGF 2 min): transiently activated | reduction of RhoA (RhoA-GTP) (RhoA-GTP; 0.1 μg/mL hEGF 5 min alone): 26%

(pyELYENKPRRPYIL)4K2K-beta-Ala [NT4]
time within which most of the peptide was internalized in cells (MDA-MB-231 cells [2]; 2 μM NT4-biotin + 0.5 μg/mL Streptavidin-Atto 488, 15 min RT in PBS-1% BSA, then medium at 37 °C): 15 to 30 min | time within which the peptide was completely endocytosed (MDA-MB-231 cells [2]; 2 μM NT4-biotin + Streptavidin-Atto 488, 37 °C): ≤ 1 h | effect on MDA-MB-231 migration (gap closure in 8 h) (MDA-MB-231 cells [3]): slowed MDA-MB-231 migration | effect on CDC42 activation without EGF (CDC42-GTP; 10 µM NT4 12 h, no EGF): no effect on CDC42 activation | effect on EGF-induced CDC42 activation (CDC42-GTP; 10 µM NT4 12 h, then 0.1 μg/mL hEGF 2 min, n = 2): mitigates activation of CDC42 induced by the growth factor | effect on EGF-induced Rac1 activation (Rac1-GTP; 10 µM NT4 12 h, then 0.1 μg/mL hEGF 2 min): not significantly changed | effect on basal levels of Rac-1-GTP (Rac-1-GTP): not affected | reduction of RhoA (RhoA-GTP) (RhoA-GTP; 10 µM NT4 12 h alone, without EGF): 20% | reduction of RhoA (RhoA-GTP) (RhoA-GTP; EGF with NT4: 10 µM NT4 12 h, then 0.1 μg/mL hEGF 5 min): 21% | binding to heparan sulfate chains (heparan sulfate chains): bind heparan sulfate chains | binding to MDA-MB231 cells (MDA-MB231 cells): bind to MDA-MB231 cells | stability against proteolytic enzymes (proteolytic enzymes): stability against proteolytic enzymes

Source: publication PMC7663799, “Endocytosis and Trafficking of Heparan Sulfate Proteoglycans in Triple-Negative Breast Cancer Cells Unraveled with a Polycationic Peptide” (International Journal of Molecular Sciences, 2020)
